Test results published in patent US8119691B2, “Method for treating airway hyper-responsiveness with lipoxin analogs” (National Institutes of Health (NIH), priority 2001, dated 2012).
“Also recorded” adds a separate entry of the source.

Legend:
[1] = target: T1, recombinant cysLT1 receptors (Homo sapiens, UniProt Q9Y271); conditions: CHO cells, in vitro (ref. 12); cited from earlier work
T1 construct: host or cells: Chinese hamster ovary cells (recombinant expression)
T1 sequence (Q9Y271 1-337): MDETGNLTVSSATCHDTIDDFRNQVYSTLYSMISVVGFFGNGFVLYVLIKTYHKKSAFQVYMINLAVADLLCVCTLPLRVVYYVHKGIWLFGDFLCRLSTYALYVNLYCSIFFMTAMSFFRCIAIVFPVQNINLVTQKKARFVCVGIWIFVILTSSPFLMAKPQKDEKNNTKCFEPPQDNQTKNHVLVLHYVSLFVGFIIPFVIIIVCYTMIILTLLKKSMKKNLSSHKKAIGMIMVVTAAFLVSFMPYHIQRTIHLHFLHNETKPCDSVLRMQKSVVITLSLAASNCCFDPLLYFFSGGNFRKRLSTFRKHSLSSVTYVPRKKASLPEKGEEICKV

OVA sensitized mice = test: Lung histopathology of OVA sensitized and aerosol challenged mice; assay type: in vivo, mouse (BALB/c); conditions: LXa 10 μg; OVA-allergic mice
Description: FIG. 2. Lung histopathology from LXa treated mice. Mice were sensitized and aerosol challenged with OVA in the absence (left column) or presence (right column) of LXa (10 μg). Representative (n=3) lung tissue sections (magnifications: ×40 (a,b), ×100 (d), ×200 (c,e) and ×400 (f)) were obtained from formalin-fixed, paraffin-embedded lung tissue, prepared and stained with hematoxylin and eosin. Arrows denote eosinophils; br, bronchus; v, vessel.
(§1) Sensitization and challenge protocols. Five to seven week old male BALB/c (Charles River Laboratories, Wilmington, Mass.) or female hCD11b-hALX FvB transgenic mice were housed in isolation cages under viral antibody-free conditions. […] On day 18, 24 h after the last aerosol challenge, airway responsiveness to intravenous methacholine (33-1000 μg/kg) was measured, bilateral bronchoalveolar lavage (BAL) (2 aliquots of 1 ml PBS plus 0.6 mM EDTA) was performed and tissues (whole blood, lungs, mediastinal lymph nodes and spleen) were harvested for histological analysis. Lung resistance (RL) was measured using a sealed constant mass plethysmograph. […] For mice studied using a whole body plethysmograph to assess airway responsiveness (Buxco), each mouse was placed into a chamber and box pressure/time waveform was analyzed to yield the indicator of airflow obstruction, enhanced pause (Penh). […] Readings were initiated at 3 min and continued for 12 min. […]

[2] = tested on: OVA sensitized and challenged mice; test: Mediator profile (cytokines, lipid mediators) in BAL fluid by ELISA, OVA sensitized and challenged mice; assay type: in vivo, mouse (BALB/c); conditions: LXa 10 μg i.v.
Description: (§2) FIG. 3. […] Bronchoalveolar lavage fluids were obtained from OVA sensitized and challenged mice. Leukocytes in bronchoalveolar lavage fluid were enumerated and identified after Wright-Giemsa stain (a). Mediator profile of (b) specific cytokines (IL-5, IL-12, IL-13, eotaxin and TNFα), and lipid mediators, including PGE2 (c), LTB4 and cysLT's (d) were determined by ELISA's in materials from control animals and those receiving LXa (10 μg, i.v.). Results are expressed as mean±SEM (n≧6, d≧2). *P<0.05 by Student's t-test compared to control animals.
Sensitization and challenge protocols. Five to seven week old male BALB/c (Charles River Laboratories, Wilmington, Mass.) or female hCD11b-hALX FvB transgenic mice were housed in isolation cages under viral antibody-free conditions. After Harvard Medical Area IRB approval (Protocol #02570), mice were sensitized with intraperitoneal injections of ovalbumin (OVA) (Grade III; Sigma Chemical Co., St. Louis, Mo.) (10 μg) plus 1 mg aluminum hydroxide (ALUM) (J.T. Baker Chemical Co.; Phillipsburg, N.J.) as adjuvant in 0.2 ml PBS on days 0 and 7. On days 14, 15, 16 and 17, the mice received 10 μg/mouse of an analog (ref. 16) of LXA4 (15-epi,16-para-fluoro-phenoxy-LXA4-methyl ester, LXa) or PBS with 1.6 mM CaCl2 and 1.6 mM MgCl2 (0.1 ml) by intravenous injection at least 1 h prior to an aerosol challenge containing either PBS or 6% OVA for 25 min/day. The analog was designed to resist rapid enzymatic inactivation and was based on the structure of the aspirin-triggered 15-epi-LXA4 (ref. 16), which carries its carbon 15 position alcohol in the R configuration or epimeric (R) to native LXA4. On day 18, 24 h after the last aerosol challenge, airway responsiveness to intravenous methacholine (33-1000 μg/kg) was measured, bilateral bronchoalveolar lavage (BAL) (2 aliquots of 1 ml PBS plus 0.6 mM EDTA) was performed and tissues (whole blood, lungs, mediastinal lymph nodes and spleen) were harvested for histological analysis. Lung resistance (RL) was measured using a sealed constant mass plethysmograph. The effective dose of methacholine required to increase RL to 200% of control values was defined as the ED200 and used as an index of airway responsiveness (as in refs. 14, 15). For mice studied using a whole body plethysmograph to assess airway responsiveness (Buxco), each mouse was placed into a chamber and box pressure/time waveform was analyzed to yield the indicator of airflow obstruction, enhanced pause (Penh). PBS or methacholine (100 mg/ml) was given by aerosol through an inlet of the chamber for 4.5 min. Readings were initiated at 3 min and continued for 12 min. Peak and one min average Penh values were determined. Serum total IgE levels were determined by ELISA (Crystal Chem, Chicago, Ill.). In situ hybridization of murine ALX was performed using an anti-sense oligonucleotide probe (534 bp in length) corresponding to nucleic acids +581-+1115 (GenBank Accession No. NM008042) with the assistance of the Dana-Farber/Harvard Cancer Center Pathology Core Facility (under the direction of Dr. Massimo Loda).
Allergen-initiated respiratory inflammation. Measurement of inflammatory mediators was determined in cell-free BAL fluid (2000 g, 10 min) by sensitive and specific ELISA's, in tandem, for interleukin-5 (IL-5), IL-13, eotaxin, tumor necrosis factor (TNFα) (R&D Systems, Minneapolis, Minn.), LTB4, cysteinyl LT, PGE2 (Cayman Chemical Co., Ann Arbor, Mich.), and LXA4 (Neogen, Lexington, Ky.). Cells were resuspended in HBSS, enumerated by hemocytometer, and concentrated onto microscope slides by cytocentrifuge (STATspin) (265 g). Cells were stained with a Wright-Giemsa stain (Sigma Chemical Co.) to determine leukocyte differentials (after counting ≧200 cells).

[3] = tested on: OVA sensitized and challenged mice; test: Leukocytes in bronchoalveolar lavage fluid (Wright-Giemsa stain) of OVA sensitized and challenged mice; assay type: in vivo, mouse (BALB/c); conditions: LXa i.v.
Description: as §2
as §1, with “min. Peak and one min average Penh values were determined. Serum total IgE levels were determined by ELISA (Crystal Chem, Chicago, Ill.).” for “min.”
Allergen-initiated respiratory inflammation. Measurement of inflammatory mediators was determined in cell-free BAL fluid (2000 g, 10 min) by sensitive and specific ELISA's, in tandem, for interleukin-5 (IL-5), IL-13, eotaxin, tumor necrosis factor (TNFα) (R&D Systems, Minneapolis, Minn.), LTB4, cysteinyl LT, PGE2 (Cayman Chemical Co., Ann Arbor, Mich.), and LXA4 (Neogen, Lexington, Ky.). […]

COC(=O)CCC[C@H](O)[C@H](O)/C=C/C=C/C=C\C=C\[C@H](O)COc1ccc(F)cc1 [LXa, 15-epi,16-para-fluoro-phenoxy-LXA4-methyl ester]
competition for binding at LTD4 recognition sites and recombinant cysLT1 receptors [1]: compete for binding with high affinity at LTD4 recognition sites | lung tissue leukocyte infiltration (tissue eosinophils and lymphocytes) and vascular injury (OVA sensitized mice): significantly reduced leukocyte infiltration | CysLT's in BAL fluid [2]: decreased | IL-5 in BAL fluid [2]: decreased | IL-12 in BAL fluid [2]: not similarly reduced; also recorded: did not significantly alter IL-12 levels | IL-13 in BAL fluid [2]: decreased | PGE2 in BAL fluid [2]: decreased | TNF in BAL fluid [2]: not similarly reduced | eotaxin in BAL fluid [2]: decreased | BAL eosinophils [3]: sharply reduced in a dose-dependent fashion | BAL lymphocytes [3]: sharply reduced in a dose-dependent fashion | BAL total leukocytes [3]: sharply reduced in a dose-dependent fashion
